# Results reported in EP0207497A2, “Quinolonecarboxylic acid derivative and process for its preparation” (KYORIN PHARMACEUTICAL CO., LTD., priority 1985, dated 1987).
# Experiments:
# Format in all cases: cell-based
# [1] = test system: Proteus vulgaris IFO 3167; assay: Antibacterial spectrum, MIC determination (method of Japan Society of Chemotherapy); details: Proteus vulgaris, IFO3167
# [2] = test system: Veillonella parvula KYA 10790; assay: as above; details: KYA10790; Veillonella parvula KYA 10790, Gram -, 10^6 cells/ml
# [3] = test system: B. fragilis 25285; assay: as above; details: Bacteroides fragilis, 25285
# [4] = test system: Shigella sonnei IID 969; assay: as above; details: IID969; Shigella sonnei IID 969, Gram -, 10^6 cells/ml
# Experimental: Minimal inhibitory concentrations (MICs) were determined in accordance with the method recommended by Japan Society of Chemotherapy.
# [5] = test system: Klebsiella pneumoniae KY(GN)6445; assay: as above; details: Klebsiella pneumoniae
# [6] = test system: Propionibacterium acens 11828; assay: as above; details: Propionibacterium, 11828
# [7] = test system: Alcaligenes faecalis 0114002; assay: as above; details: Alcaligenes faecalis 0114002, Gram -, 10^6 cells/ml
# [8] = test system: B. thetaiotaomicron (0661); assay: as above; details: Bacteroides thetaiotaomicron
# [9] = test system: Escherichia coli NIHJ JC-2; assay: as above; details: NIHJJC2; Escherichia coli NIHJ JC-2, Gram -, 10^6 cells/ml
# [10] = test system: Morganella morganii IID 602; assay: as above; details: IID602; Morganella morganii IID 602, Gram -, 10^6 cells/ml
# [11] = test system: B. vulgatus KYA 29327; assay: as above; details: Phocaeicola vulgatus, KYA29327
# [12] = test system: E. coli ML 4707; assay: as above; details: Escherichia coli, ML4707
# [13] = test system: S. aureus Smith; assay: as above; details: Staphylococcus aureus
# [14] = test system: B. fragilis 0558; assay: as above; details: Bacteroides fragilis, 0558
# [15] = test system: Citrobacter freundii IID 976; assay: as above; details: Citrobacter freundii, IID976
# [16] = test system: B. distasonis 8503; assay: as above; details: Parabacteroides distasonis, 8503
# [17] = test system: E. coli ATCC 10536; assay: as above; details: Escherichia coli, ATCC10536
# [18] = test system: Staphylococcus aureus 209 P; assay: as above; details: Staphylococcus aureus, 209P
# [19] = test system: Yersinia enterocolitica IID 981; assay: as above; details: Yersinia enterocolitica, IID981
# [20] = test system: C. ramosum; assay: as above; details: Thomasclavelia ramosa
# [21] = test system: Serratia marcescens IID 618; assay: as above; details: Serratia marcescens, IID618
# [22] = test system: Peptococcus magnus KY 017; assay: as above; details: Finegoldia magna, KY017
# [23] = test system: Peptostreptococcus anaerobius KYA 27337; assay: as above; details: Peptostreptococcus anaerobius, KYA27337
# [24] = test system: K. pneumoniae 1-220S; assay: as above; details: Klebsiella pneumoniae, 1220S
# [25] = test system: P. mirabilis IID 994; assay: as above; details: Proteus mirabilis, IID994
# [26] = test system: P. cepacia GIFU 518; assay: as above; details: Burkholderia cepacia, GIFU518
# [27] = test system: Fusobacterium mortiferum 4249; assay: as above; details: Fusobacterium mortiferum, 4249
# [28] = test system: Pst. micros UPI 5464-1; assay: as above; details: Parvimonas micra, UPI54641; Pst. micros UPI 5464-1, Gram +, 10^6 cells/ml
# [29] = test system: S. aureus IID 670 (Terajima); assay: as above; details: Staphylococcus aureus, IID670
# [30] = test system: P. maltophilia GIFU 2491; assay: as above; details: Stenotrophomonas maltophilia, GIFU2491
# [31] = test system: Bacteroides fragilis GM 7000; assay: as above; details: Bacteroides fragilis, GM7000
# [32] = test system: S. epidermidis IID 866; assay: as above; details: Staphylococcus epidermidis, IID866
# [33] = test system: Streptococcus pyogenes (S-8); assay: as above; details: Streptococcus pyogenes
# [34] = test system: C. perfringens KYA 13123; assay: microbe, parasite or virus in culture; details: Clostridium perfringens, KYA13123
# [35] = test system: Salmonella enteritidis IID 604; assay: Antibacterial spectrum, MIC determination (method of Japan Society of Chemotherapy); details: Salmonella enterica
# [36] = test system: Bacillus subtilis PCI 219; assay: as above; details: Bacillus subtilis, PCI219
# [37] = test system: Acinetobacter anitratus IID 876; assay: as above; details: Acinetobacter calcoaceticus, IID876
smiles,measurement,setting,value
"O=C(O)c1cn(C2CC2)c2cc(N3CCNCC3)c(F)cc2c1=O [CPFX, ciprofloxacin, reference compound]",MIC,[1],0.0125 µg/mL
same,MIC,[2],0.2 µg/mL
same,MIC,[3],3.13 µg/mL
same,MIC,[4],0.0063 µg/mL
same,MIC,[5],0.0125 µg/mL
same,MIC,[6],12.5 µg/mL
same,MIC,[7],0.39 µg/mL
same,MIC,[8],> 12.5 µg/mL
same,MIC,[9],0.0063 µg/mL
same,MIC,[10],0.025 µg/mL
same,MIC,[11],> 12.5 µg/mL
same,MIC,[12],0.0125 µg/mL
same,MIC,[13],0.39 µg/mL
same,MIC,[14],3.13 µg/mL
same,MIC,[15],0.0063 µg/mL
same,MIC,[16],6.25 µg/mL
same,MIC,[17],0.0125 µg/mL
same,MIC,[18],0.2 µg/mL
same,MIC,[19],0.025 µg/mL
same,MIC,[20],12.5 µg/mL
same,MIC,[21],0.025 µg/mL
same,MIC,[22],0.39 µg/mL
same,MIC,[23],1.56 µg/mL
same,MIC,[24],0.025 µg/mL
same,MIC,[25],0.0125 µg/mL
same,MIC,[26],0.39 µg/mL
same,MIC,[27],1.56 µg/mL
same,MIC,[28],0.2 µg/mL
same,MIC,[29],0.2 µg/mL
same,MIC,[30],0.39 µg/mL
same,MIC,[31],6.25 µg/mL
same,MIC,[32],0.2 µg/mL
same,MIC,[33],0.39 µg/mL
same,MIC,[34],0.39 µg/mL
same,MIC,[35],0.025 µg/mL
same,MIC,[36],0.05 µg/mL
same,MIC,[37],0.1 µg/mL
